The values below come from ChEMBL document CHEMBL1201862, “PubChem BioAssay data set” (2004).

Among the test systems are A549; BT-549; CCRF-CEM; HCC 2998; HCT-15; HL-60; HOP-62; HT-29; Hs-578T; IGROV-1; K562; MDA-MB-231; MDA-MB-435; Malme-3M; OVCAR-4; SF-268; SF-539; SK-OV-3; SW-620; UACC-62.
Common to all, as to test: inhibition of tumour cell growth, NCI panel, 48 h

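Five compound concentrations were applied to cells in 96-well plates for 48 hours; endpoints were derived by simple linear interpolation of the resulting dose-response curve. GI50: concentration for 50% inhibition of growth.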 Active and inactive are the calls of the source. Cut-off read from the data, not from the text of the source: active = GI50 up to about 1.1 µM and inactive = higher. *1 amine or outer side, *2 acyl side, *3 side chain or, on linkers, in order; H or OH if unused. Where a SMILES comes first, the peptide text is derived from it. Bridges are numbered along the chain shown (N, C = ends). [ ]: non-standard residue; d: D form. ξ: configuration not given here. X10 = CCC(C)C(N[*:1])C(O)CC(=O)O[C@H](C(=O)C(C)C(=O)[*:2])C(C)C; NMeY = CN[C@@H](Cc1ccc(O)cc1)C(=O)O; ξNMeL = CNC(CC(C)C)C(=O)O; ξT = CC(O)C(N)C(=O)O

For `COc1nc2ccc(CNc3ccc(C(=O)O)cc3)cc2nc1OC`, the GI50 in the assay with A549 is > 10 µM (inactive); with BT-549, > 10 µM (inactive); in the assay with CCRF-CEM it was > 10 µM (inactive); in the assay on HCC 2998, > 10 µM (inactive); in the assay with HCT-15 it was over 10 µM; with HL-60, > 10 µM (inactive). The GI50 with HOP-62, in the assay on HT-29, in the assay on Hs-578T, in the assay on IGROV-1, in the assay on K562 and in the assay on MDA-MB-231 was > 10 µM (inactive) in each case. The GI50 in the assay on MDA-MB-435, in the assay with Malme-3M, in the assay with OVCAR-4, with SF-268, with SF-539 and in the assay on SK-OV-3 was > 10 µM (inactive) throughout. In addition, the GI50 in the assay with SW-620 and with UACC-62 was > 10 µM (inactive) in each case.

Consider `OCC1OC(NC(=S)NCCC(F)(F)C(F)(F)C(F)(F)C(F)(F)C(F)(F)C(F)(F)F)C(O)C(O)C1O` (stereo not given), for which the GI50 in the assay with A549 is > 100 µM (inactive); in the assay with BT-549 it was > 100 µM (inactive); in the assay on CCRF-CEM, 38.3 µM (inactive); in the assay with HCC 2998, > 100 µM (inactive); with HCT-15, over 100 µM; with HL-60, > 100 µM (inactive). Moreover, the GI50 in the assay with HOP-62 is 71.4 µM (inactive); in the assay on HT-29, > 100 µM (inactive); in the assay with Hs-578T, > 100 µM (inactive); with IGROV-1, 65.9 µM (inactive); with K562, 28.2 µM (inactive); in the assay on MDA-MB-231, > 100 µM (inactive). The GI50 in the assay on MDA-MB-435 is 58.6 µM (inactive); in the assay on Malme-3M it was > 100 µM (inactive); with OVCAR-4, > 100 µM (inactive); in the assay with SF-268, > 100 µM (inactive); in the assay with SF-539 it was > 100 µM (inactive); with SK-OV-3, > 100 µM (inactive). Moreover, the GI50 in the assay on SW-620 was > 100 µM (inactive); in the assay on UACC-62, 67.9 µM (inactive).

On to `Cc1ccc(O)c(-c2cc(-c3cccc(Br)c3)on2)c1`, for which the GI50 in the assay with A549 is 29.4 µM (inactive); with BT-549, 27.7 µM (inactive); in the assay on CCRF-CEM it was 26.9 µM (inactive); in the assay with HCC 2998, 22.4 µM (inactive); with HCT-15 it was 31.4 µM; in the assay on HL-60 it was 27 µM (inactive). Moreover, the GI50 in the assay on HOP-62 is 47.8 µM (inactive); in the assay on HT-29 it was 25.5 µM (inactive); with Hs-578T, 44.6 µM (inactive); in the assay with IGROV-1, 14.5 µM (inactive); in the assay with K562 it was 29.6 µM (inactive); in the assay on MDA-MB-231 it was 30.1 µM (inactive). The GI50 was 21.7 µM (inactive) in the assay on MDA-MB-435; 32.6 µM (inactive) with Malme-3M; 11.6 µM (inactive) in the assay on OVCAR-4; 24.2 µM (inactive) with SF-268; 28.8 µM (inactive) in the assay on SF-539; 21.3 µM (inactive) with SK-OV-3. The figures for the GI50 with SW-620 and in the assay with UACC-62 were 19.8 µM (inactive) and 28.6 µM (inactive), respectively.

Regarding `CC(C)(C)OC(=O)N1CCCC1C(=O)NCCNc1ccc(NCCNC(=O)C2CCCN2C(=O)OC(C)(C)C)c2c1C(=O)c1ccccc1C2=O` (stereo not given), the GI50 was 15.8 µM (inactive) in the assay on A549; 13 µM (inactive) in the assay with BT-549; > 100 µM (inactive) in the assay with CCRF-CEM; 13 µM (inactive) in the assay on HCC 2998; 13.9 µM in the assay with HCT-15; > 100 µM (inactive) in the assay with HL-60. In addition, the GI50 in the assay on HOP-62 was 15.4 µM (inactive); in the assay with HT-29, 13.7 µM (inactive); in the assay with Hs-578T it was 18.7 µM (inactive); in the assay with IGROV-1 it was 13.9 µM (inactive); with K562 it was < 0.01 µM (active); in the assay on MDA-MB-231, 13.2 µM (inactive). Also, the GI50 in the assay on MDA-MB-435 is 14.1 µM (inactive); with Malme-3M it was 15.1 µM (inactive); in the assay on OVCAR-4, 15 µM (inactive); in the assay with SF-268, 31.3 µM (inactive); in the assay with SF-539, 16.1 µM (inactive); in the assay with SK-OV-3, 19.7 µM (inactive). The figures for the GI50 with SW-620 and in the assay with UACC-62 were 13.8 µM (inactive) and 11.6 µM (inactive), respectively.

Regarding `COc1ccc(CCN2CCN(CCCc3ccccc3)CC2)cc1`, the GI50 is > 100 µM (inactive) with A549; 70.5 µM (inactive) with BT-549; > 100 µM (inactive) in the assay on CCRF-CEM; 69.3 µM (inactive) with HCC 2998; 37.7 µM in the assay on HCT-15; > 100 µM (inactive) in the assay on HL-60. Besides, the GI50 in the assay on HOP-62 was > 100 µM (inactive); in the assay on HT-29 it was 33.5 µM (inactive); with Hs-578T, > 100 µM (inactive); with IGROV-1, 96.8 µM (inactive); in the assay on K562, 38.6 µM (inactive); with MDA-MB-231, > 100 µM (inactive). In addition, the GI50 is > 100 µM (inactive) in the assay on MDA-MB-435; > 100 µM (inactive) in the assay on Malme-3M; 71.6 µM (inactive) in the assay on OVCAR-4; > 100 µM (inactive) with SF-268; > 100 µM (inactive) in the assay with SF-539; > 100 µM (inactive) with SK-OV-3. The GI50 in the assay on SW-620 and in the assay on UACC-62 was > 100 µM (inactive) each time.

`CC1=NN(c2cccc(Cl)c2)C2(C1)SCC(=O)N2c1nc2ccccc2s1` (stereo not given): the GI50 was 31.2 µM (inactive) in the assay with A549; 29.3 µM (inactive) in the assay with BT-549; 21.8 µM (inactive) with CCRF-CEM; 17.9 µM (inactive) in the assay with HCC 2998; 33.2 µM in the assay on HCT-15; 22.2 µM (inactive) with HL-60. In addition, the GI50 in the assay with HOP-62 was 19.4 µM (inactive); in the assay with HT-29 it was 27.1 µM (inactive); in the assay with Hs-578T it was 41.1 µM (inactive); with IGROV-1, 21.9 µM (inactive); with K562, 18.2 µM (inactive); in the assay on MDA-MB-231, 19.1 µM (inactive). Moreover, the GI50 in the assay with MDA-MB-435 is 25 µM (inactive); in the assay with Malme-3M, 34.3 µM (inactive); in the assay with OVCAR-4 it was 34 µM (inactive); in the assay on SF-268 it was 31.2 µM (inactive); in the assay on SF-539, 22.8 µM (inactive); in the assay with SK-OV-3, 21.6 µM (inactive). The values for the GI50 with SW-620 and in the assay on UACC-62 were 32.6 µM (inactive) and 29.5 µM (inactive), respectively.

For the compound `OC(C1CCCCCCCCCC1)C(O)C1CCCCCCCCCC1` (stereo not given), the GI50 was > 100 µM (inactive) in the assay with A549; > 100 µM (inactive) with BT-549; > 100 µM (inactive) in the assay with CCRF-CEM; > 100 µM (inactive) in the assay with HCC 2998; over 100 µM with HCT-15; > 100 µM (inactive) in the assay on HL-60. Further, the GI50 in the assay with HOP-62 was > 100 µM (inactive); with HT-29, > 100 µM (inactive); in the assay with Hs-578T, > 100 µM (inactive); in the assay on IGROV-1, > 100 µM (inactive); with K562 it was 55.1 µM (inactive); in the assay on MDA-MB-231, > 100 µM (inactive). In addition, the GI50 in the assay on MDA-MB-435, in the assay with Malme-3M, in the assay with OVCAR-4, in the assay with SF-268, with SF-539 and with SK-OV-3 was > 100 µM (inactive) each time. Further, the GI50 in the assay with SW-620 and in the assay with UACC-62 was > 100 µM (inactive) each time.

For `Cc1c2cccc-2ccc2c1[nH]c1ccc(Br)cc12`, the GI50 in the assay on A549 was 4.2 µM (inactive); in the assay on BT-549 it was 7.03 µM (inactive); in the assay on CCRF-CEM, 3.12 µM (inactive); with HCC 2998, 15.2 µM (inactive); with HCT-15, 3.62 µM; in the assay with HL-60 it was 4.15 µM (inactive). In addition, the GI50 is 6.43 µM (inactive) in the assay on HOP-62; 13.2 µM (inactive) in the assay on HT-29; 5.86 µM (inactive) in the assay with Hs-578T; 2.56 µM (inactive) in the assay on IGROV-1; 2.96 µM (inactive) in the assay with K562; 4.33 µM (inactive) in the assay with MDA-MB-231. Moreover, the GI50 with MDA-MB-435 is 4.7 µM (inactive); in the assay with Malme-3M it was 9.86 µM (inactive); in the assay with OVCAR-4, 1.96 µM (inactive); in the assay with SF-268, 4.6 µM (inactive); with SF-539, 4.81 µM (inactive); in the assay on SK-OV-3, 14.7 µM (inactive). The GI50 was 4.75 µM (inactive) in the assay on SW-620 and 13 µM (inactive) with UACC-62.

For the compound `COc1cccc(C(=O)N[C@@H]2[C@H](O)[C@@H](CO)O[C@H]2n2cnc3c(N)ncnc32)c1`, the GI50 in the assay on A549 was > 100 µM (inactive); in the assay with BT-549 it was > 100 µM (inactive); in the assay on CCRF-CEM, > 100 µM (inactive); with HCC 2998 it was > 100 µM (inactive); with HCT-15 it was over 100 µM; in the assay with HL-60, > 100 µM (inactive). Further, the GI50 in the assay on HOP-62, in the assay with HT-29, in the assay with Hs-578T, in the assay with IGROV-1, with K562 and in the assay on MDA-MB-231 was > 100 µM (inactive) each time. The GI50 in the assay on MDA-MB-435, with Malme-3M, in the assay with OVCAR-4, with SF-268, in the assay with SF-539 and with SK-OV-3 was > 100 µM (inactive) throughout. The GI50 with SW-620 and in the assay on UACC-62 was > 100 µM (inactive) throughout.

Regarding `CCC(C)C1NC(=O)C(NC(=O)C(CC(C)C)N(C)C(=O)[C@@H]2CCCN2)C(C)OC(=O)[C@H](Cc2ccc(OC)cc2)N(C)C(=O)[C@@H]2CCCN2C(=O)[C@H](CC(C)C)NC(=O)C(C)C(=O)[C@H](C(C)C)OC(=O)CC1O` (stereo not given in full) (H-P[ξNMeL][ξT][X10]LP[NMeY](Me); ester 3-C), the GI50 in the assay with A549 is 0.000533 µM (active); in the assay on BT-549, 0.00156 µM (active); in the assay with CCRF-CEM, 0.000493 µM (active); in the assay on HCC 2998 it was 0.000438 µM (active); with HCT-15, 0.016 µM; in the assay on HL-60, 0.00389 µM (active). Besides, the GI50 with HOP-62 was 0.00126 µM (active); with HT-29, 0.000195 µM (active); in the assay on Hs-578T, < 0.01 µM (active); in the assay on IGROV-1, 0.000288 µM (active); in the assay on K562, 0.000325 µM (active); in the assay on MDA-MB-231, 0.00042 µM (active). Moreover, the GI50 in the assay with MDA-MB-435 was 0.00047 µM (active); in the assay on Malme-3M, 0.000317 µM (active); with OVCAR-4, 0.000139 µM (active); with SF-268, 0.000267 µM (active); in the assay with SF-539, 0.000322 µM (active); with SK-OV-3, 0.000386 µM (active). Also, the GI50 with SW-620 was 0.000555 µM (active); in the assay on UACC-62, < 0.0001 µM (active).
